Source: BindingDB's records for doi:10.1016/S0960-894X(01)80190-6 (n/a, 1994)

These compounds were tested against Lanosterol 14-alpha demethylase (Candida albicans) (UniProt P10613) (assay: In vitro inhibition of Lanosterol 14-alpha demethylase (Candida albicans CY1005)).
Chain of Lanosterol 14-alpha demethylase (Candida albicans) (P10613 whole entry, looked up): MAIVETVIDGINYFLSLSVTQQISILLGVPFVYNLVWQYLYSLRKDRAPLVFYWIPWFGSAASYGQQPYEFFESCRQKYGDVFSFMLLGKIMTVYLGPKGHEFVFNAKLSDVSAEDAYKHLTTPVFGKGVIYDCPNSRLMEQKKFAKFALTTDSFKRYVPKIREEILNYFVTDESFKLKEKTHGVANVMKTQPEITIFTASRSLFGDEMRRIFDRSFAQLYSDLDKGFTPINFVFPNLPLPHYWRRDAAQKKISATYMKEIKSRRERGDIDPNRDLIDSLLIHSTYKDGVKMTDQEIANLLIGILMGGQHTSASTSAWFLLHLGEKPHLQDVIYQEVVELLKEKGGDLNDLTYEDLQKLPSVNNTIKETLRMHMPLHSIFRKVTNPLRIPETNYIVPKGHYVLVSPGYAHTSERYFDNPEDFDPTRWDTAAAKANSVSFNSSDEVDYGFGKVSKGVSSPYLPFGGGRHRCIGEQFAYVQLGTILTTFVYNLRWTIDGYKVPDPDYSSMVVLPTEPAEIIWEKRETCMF

Row | IC50 [nM] | SMILES
1 | 225 | CCCCCCC/C=C/C[C@@H]1OC[C@H](C)[C@H](OC)[C@H]1COC(=O)CN
2 | 85 | CC[C@@H](C)n1ncn(-c2ccc(N3CCN(c4ccc(OC[C@H]5CO[C@](Cn6cncn6)(c6ccc(Cl)cc6Cl)O5)cc4)CC3)cc2)c1=O [ITRAZOLE]
3 | 90.3 | CCc1ccc(CC[C@@H]2CCC(C)(C)[C@H](OC)[C@H]2Cn2ccnc2)cc1
